The results in this text go back to patent publication US11639353B2, “Cyclobutanes- and azetidine-containing mono and spirocyclic compounds as αV integrin inhibitors” (BRISTOL-MYERS SQUIBB COMPANY, priority 2016, dated 2023).

Structures can show the parent of a compound that is named as a salt.

In the test the target is T1, human αVβ6 (Homo sapiens, UniProt P06756+P18564).
T1 construct: purchased R & D systems 3817-AV
T1 sequence (P06756 31-992 limits assumed): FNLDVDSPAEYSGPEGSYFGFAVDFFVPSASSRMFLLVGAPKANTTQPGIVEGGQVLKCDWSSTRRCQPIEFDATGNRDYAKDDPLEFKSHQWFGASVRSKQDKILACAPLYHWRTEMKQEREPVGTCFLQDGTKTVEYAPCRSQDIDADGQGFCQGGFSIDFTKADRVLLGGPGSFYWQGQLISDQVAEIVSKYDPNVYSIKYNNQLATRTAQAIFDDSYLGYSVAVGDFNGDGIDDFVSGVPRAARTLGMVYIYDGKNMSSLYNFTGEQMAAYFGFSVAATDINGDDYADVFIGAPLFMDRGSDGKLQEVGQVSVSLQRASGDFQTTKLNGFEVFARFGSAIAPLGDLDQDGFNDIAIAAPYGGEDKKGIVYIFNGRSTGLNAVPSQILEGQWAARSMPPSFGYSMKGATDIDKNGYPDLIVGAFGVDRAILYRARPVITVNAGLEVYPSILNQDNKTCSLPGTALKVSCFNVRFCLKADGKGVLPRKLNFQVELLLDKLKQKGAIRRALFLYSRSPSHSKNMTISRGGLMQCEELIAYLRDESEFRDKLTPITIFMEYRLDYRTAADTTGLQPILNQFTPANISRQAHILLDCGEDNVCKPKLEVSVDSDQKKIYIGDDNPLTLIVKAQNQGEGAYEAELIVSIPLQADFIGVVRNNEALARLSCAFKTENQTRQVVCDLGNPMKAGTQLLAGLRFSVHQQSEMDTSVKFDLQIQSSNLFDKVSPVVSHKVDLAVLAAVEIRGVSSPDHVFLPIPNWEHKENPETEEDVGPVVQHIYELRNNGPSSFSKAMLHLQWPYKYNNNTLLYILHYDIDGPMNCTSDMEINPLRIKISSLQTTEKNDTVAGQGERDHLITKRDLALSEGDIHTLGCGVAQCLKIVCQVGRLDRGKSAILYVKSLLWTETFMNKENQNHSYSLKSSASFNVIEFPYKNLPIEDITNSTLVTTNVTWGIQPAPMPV
T1 sequence (P18564 22-707 limits assumed): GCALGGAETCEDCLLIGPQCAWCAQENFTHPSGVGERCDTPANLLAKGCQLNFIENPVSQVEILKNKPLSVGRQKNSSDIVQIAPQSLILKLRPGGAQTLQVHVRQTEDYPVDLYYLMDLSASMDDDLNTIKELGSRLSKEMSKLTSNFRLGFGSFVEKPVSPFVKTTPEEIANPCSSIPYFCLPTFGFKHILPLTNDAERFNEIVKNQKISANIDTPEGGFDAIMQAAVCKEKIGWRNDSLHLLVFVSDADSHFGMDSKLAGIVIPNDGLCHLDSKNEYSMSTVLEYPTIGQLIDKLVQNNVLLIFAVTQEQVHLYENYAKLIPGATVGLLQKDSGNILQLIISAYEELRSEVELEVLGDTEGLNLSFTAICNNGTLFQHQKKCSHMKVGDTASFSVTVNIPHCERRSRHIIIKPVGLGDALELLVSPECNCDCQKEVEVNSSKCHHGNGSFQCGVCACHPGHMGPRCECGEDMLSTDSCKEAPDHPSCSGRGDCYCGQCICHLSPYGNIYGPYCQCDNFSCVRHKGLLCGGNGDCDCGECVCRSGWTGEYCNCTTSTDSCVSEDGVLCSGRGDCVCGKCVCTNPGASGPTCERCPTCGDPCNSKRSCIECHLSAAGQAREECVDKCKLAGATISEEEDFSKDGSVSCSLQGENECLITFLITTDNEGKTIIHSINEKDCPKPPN
Nature of the test: human αVβ6 HTRF binding assay. Particulars: alternatively SPA-based assay. As for the experimental part:
All binding assays used the HTRF (homogeneous time resolved fluorescence) technology from Cisbio International, therefore all assays are described as HTRF binding assays. The assay results for the Examples are listed above together with the characterization data. The HTRF binding assays are established for the following integrins: human αVβ6, human αVβ1, human αVβ3, human αVβ5, and human αVβ8. All assays used the following assay buffer: 20 mM Tris, pH 7.4, 1 mM MgCl2, 1 mM MnCl2, 0.01% Tween 20, and 0.01% BSA. Alternatively, a SPA-based assay was used for evaluation of receptor binding.
The following describes the components and a representative procedure for the human αVβ6 HTRF binding assay: Recombinant human αVβ6 Integrin (R & D systems, 3817-AV) was biotinylated. Biotinylated human αVβ6 Integrin was added to assay vessel at a final concentration of 1.25 nM. FITC-conjugated fibronectin (Cytoskeleton, FNR02) was then added at the final concentration of 5 nM. The mixture was centrifuged at 600 rpm for three minutes using Thermo Fisher Heraeus Multifuge X3 centrifuge and then incubated at RT for an hour. Streptavidin Terbium (Cisbio international 610STLB) was then added at the final concentration of 0.625 nM. The resulting mixture was centrifuged at 600 rpm for three minutes using Thermo Fisher Heraeus Multifuge X3 centrifuge and then incubated at room temperature overnight in dark before reading HTRF signals.
The SPA-based assay was carried out according to the protocol and procedures similar to the ones described in the following reference with appropriate modifications to agents and ligands which are readily understood by one skilled in the art: Pachter J A, Zhang R, Mayer-Ezell R., “Scintillation proximity assay to measure binding of soluble fibronectin to antibody-captured αVβ1 integrin” Anal Biochem. 1995 Sep. 1; 230(1):101-7.
(In general: TR-FRET usually uses a lanthanide donor and a delayed reading to cut background.)
Regarding `COc1ccc([C@H](CC(=O)O)N2CC(CCCc3ccc4c(n3)NCCC4)C2=O)cc1F` (single isomer, unassigned) [Example 180], the IC50 (as a rule, the concentration needed to halve the response being measured) came to 17 nM. Next, `Cc1ncc(C(CC(=O)O)N2CC(COCCc3ccc4c(n3)NCCC4)C2)cn1` (stereo not shown) [Example 127, 3-(2-methylpyrimidin-5-yl)-3-(3-((2-(5,6,7,8-tetrahydro-1,8-naphthyridin-2-yl)ethoxy)methyl)azetidin-1-yl)propanoic acid, 2 TFA]: 7.9 nM; `Cc1ncc([C@H](CC(=O)O)N2CC(OCCCc3ccc4c(n3)NCCC4)C2)cn1` [example 131, (S)-3-(2-methylpyrimidin-5-yl)-3-(3-(3-(5,6,7,8-tetrahydro-1,8-naphthyridin-2-yl)propoxy)azetidin-1-yl)propanoic acid]: 7.5 nM. In the case of `CCOC(=O)[C@H](CNC(=O)C1CC2(C1)CN(CCc1ccc3c(n1)NCCC3)C2)NS(=O)(=O)c1c(C)cc(C)cc1C` [Example 47] it was 160 nM; in that of `O=C(O)C[C@H](NC(=O)C1CC2(C1)CN(CCCc1ccc3c(n1)NCCC3)C2)c1cc(Cl)cc(Cl)c1` [Example 3, (S)-3-(3,5-Dichlorophenyl)-3-(2-(3-(5,6,7,8-tetrahydro-1,8-naphthyridin-2-yl)propyl)-2-azaspiro[3.3]heptane-6-carboxamido)propanoic acid], 21 nM; in that of `COc1ccc([C@H](CC(=O)O)N2CC(CCCc3ccc4c(n3)NCCC4)C2=O)cn1` (single isomer, unassigned) [Example 182], 5.7 nM. In turn, `COc1ccc(C(CC(=O)O)C2CC3(C2)CN(CCc2ccc4c(n2)NCCC4)C3)cn1` (stereo not shown) [Example 100] showed a concentration for half-maximal inhibition (IC50) of 2.4 nM.

`COc1ccc(C(CC(=O)O)C2CC(NCCCc3ccc4c(n3)NCCC4)C2)cc1F` (stereo not shown) [Example 126] registered an IC50 of 4.18 nM. In the case of `O=C(O)C[C@@H](c1cc(Cl)cc(Cl)c1)N1CC(CCCCc2ccc3c(n2)NCCC3)C1=O` (stereo partly shown) [Example 109] it was 0.89 nM; in that of `Cc1cc(C)c(S(=O)(=O)N[C@@H](CNC(=O)C2CC3(CC(CCc4ccc5c(n4)NCCC5)C3)C2)C(=O)O)c(C)c1` (stereo partly drawn) [Example 5, (S)-3-(6-(2-(5,6,7,8-Tetrahydro-1,8-naphthyridin-2-yl)ethyl)spiro[3.3]heptane-2-carboxamido)-2-((2,4,6-trimethylphenyl)sulfonamido)propanoic acid], 1.3 nM; in that of `O=C(O)C[C@H](NC(=O)C1CN(CCc2ccc3c(n2)NCCC3)C1)c1cc(Cl)cc(Cl)c1` [Example 38], 0.8 nM. Turning to `O=C(N[C@@H](CNC(=O)[C@H]1C[C@@H](Cc2ccc3c(n2)NCCC3)C1)C(=O)O)OCc1cccc(F)c1` (relative stereo) [Example 197], the IC50 is 197 nM. In the case of `O=C(N[C@@H](CNC(=O)C1CN(CCc2ccc3c(n2)NCCC3)C1)C(=O)O)OCc1ccccc1` [Example 43] it was 0.4 nM; in that of `Cc1cc(C)n(-c2cccc(C(CC(=O)O)N3CC4(CC(Cc5ccc6c(n5)NCCC6)C4)C3)c2)n1` (stereo not shown) [Example 211, 3-(3-(3,5-dimethyl-1H-pyrazol-1-yl)phenyl)-3-(6-((5,6,7,8-tetrahydro-1,8-naphthyridin-2-yl)methyl)-2-azaspiro[3.3]heptan-2-yl)propanoic acid], 3.6 nM; in that of `CC1(CCCCc2ccc3c(n2)NCCC3)CN([C@@H](CC(=O)O)c2cc(F)cc(F)c2)C1` [Example 160], 1.3 nM. As for `COc1ccc([C@H](CC(=O)O)N2CC(c3ccc(-c4ccc5c(n4)NCCC5)cc3)C2=O)cn1` (single isomer, unassigned) [Example 183], the IC50 was found to be 2 nM.

As for `O=C(O)C[C@H](NC(=O)C1(F)CN(CCc2ccc3c(n2)NCCC3)C1)c1ccc2c(c1)OCC2` [Example 81], the 50% inhibitory concentration (IC50) stood at 0.93 nM. The compound `COc1ccc([C@H](CC(=O)O)NC2CN(CCCc3ccc4c(n3)NCCC4)C2)cc1F` [Example 72] gave an IC50 of 1.1 nM. `CC1(CCCCc2ccc3c(n2)NCCC3)CN([C@@H](CC(=O)O)c2cnc3ccccc3c2)C1` [Example 159] displayed an IC50 of 1.5 nM. Regarding `Cc1ncc([C@H](CC(=O)O)NC(=O)N2CC(CCc3ccc4c(n3)NCCC4)C2)cn1` [Example 120], the concentration for half-maximal inhibition (IC50) is 5.9 nM. Next, `Cc1ncc([C@@H](CC(=O)O)N2CC(OCCCc3ccc4c(n3)NCCC4)C2)cn1` [example 132, (R)-3-(2-methylpyrimidin-5-yl)-3-(3-(3-(5,6,7,8-tetrahydro-1,8-naphthyridin-2-yl)propoxy)azetidin-1-yl)propanoic acid]: 25 nM. Next, `CCOC(=O)C[C@H](NC(=O)C1CN(CCc2ccc3c(n2)NCCC3)C1)c1ccc(OC)nc1` [Example 48]: 400 nM; `COc1ccc(C(CC(=O)O)N2CC(OCCCc3ccc4c(n3)NCCC4)C2)cc1F` (stereo not shown) [Example 135, 3-(3-fluoro-4-methoxyphenyl)-3-(3-(3-(5,6,7,8-tetrahydro-1,8-naphthyridin-2-yl)propoxy)azetidin-1-yl)propanoic acid, 2 TFA]: 4.9 nM. In the case of `O=C(N[C@@H](CC(=O)N1CC2(CC(CCc3ccc4c(n3)NCCC4)C2)C1)C(=O)O)OCc1ccccc1` [Example 61], the IC50 amounted to 20 nM. For `O=C(O)C[C@H](NC(=O)C1CC2(CC(NC(=O)CCc3ccc4c(n3)NCCC4)C2)C1)c1cc(Cl)cc(Cl)c1` (stereo partly shown) [Example 29], the IC50 was 2000 nM.

In turn, `Cc1nc2c(cc1CCN1CC3(CC(C(=O)N[C@@H](CC(=O)O)c4cc(Cl)cc(Cl)c4)C3)C1)CCCN2` [Example 4, (S)-3-(3,5-Dichlorophenyl)-3-(2-(2-(2-methyl-5,6,7,8-tetrahydro-1,8-naphthyridin-3-yl)ethyl)-2-azaspiro[3.3]heptane-6-carboxamido)propanoic acid] yielded a 50% inhibitory concentration (IC50) of 25 nM. Compound `COc1ccc([C@H](CC(=O)O)NC2CC3(C2)CN(CCc2ccc4c(n2)NCCC4)C3)cn1` [Example 75] displayed a concentration for half-maximal inhibition (IC50) of 17 nM.

“(S)-Ethyl 3-(6-methoxypyridin-3-yl)-3-(1-methyl-3-(2-(5,6,7,8-tetrahydro-1,8-naphthyridin-2-yl)ethyl)cyclobutanecarboxamido)propanoate [Example 15]” had an IC50 of 5.2 nM. Regarding `COc1ccc([C@H](CC(=O)O)NC(=O)C2CN(CCc3ccc4c(n3)NCCC4)C2)cn1` [Example 37], the IC50 was 1 nM.

`O=C(O)C[C@H](NC(=O)[C@H]1C[C@H](CCc2ccc3c(n2)NCCC3)C1)c1cc(Cl)cc(Cl)c1` [Example 92] had an IC50 of 1.2 nM. Next, `CCOC(=O)C[C@H](NC(=O)C1CC2(C1)CN(CCc1ccc3c(n1)NCCC3)C2)c1ccc(OC)c(F)c1` [Example 31]: 230 nM; `CCCOC(=O)N[C@@H](CC(=O)N1CC(CCc2ccc3c(n2)NCCC3)C1)C(=O)O` [Example 175]: 735 nM; `CC1(CCCCc2ccc3c(n2)NCCC3)CN([C@@H](CC(=O)O)c2ccc(F)c(F)c2)C1` [Example 161]: 0.85 nM.

`O=C(O)C[C@H](NC(=O)C1CC2(C1)CN(C(=O)CCc1ccc3c(n1)NCCC3)C2)c1cc(Cl)cc(Cl)c1` [Example 1, (S)-3-(3,5-Dichlorophenyl)-3-(2-(3-(5,6,7,8-tetrahydro-1,8-naphthyridin-2-yl)propanoyl)-2-azaspiro[3.3]heptane-6-carboxamido)propanoic acid, TFA] came in with an IC50 of 420 nM. In turn, `Cc1cc(C)c(S(=O)(=O)N[C@@H](CN2CC(CCCc3ccc4c(n3)NCCC4)C2=O)C(=O)O)c(C)c1` (single isomer, unassigned) [Example 186] registered a concentration for half-maximal inhibition (IC50) of 0.61 nM. The compound `COc1ccc([C@H](CC(=O)O)NC(=O)C2CC(CCC3CCc4cccnc4N3)C2)cn1` (stereo partly shown) [Example 57] came in with an IC50 of 0.94 nM.

Consider `COc1ccc([C@@H](CC(=O)O)N2CC(OCCCc3ccc4c(n3)NCCC4)C2)cc1F` [Example 137, (R)-3-(3-fluoro-4-methoxyphenyl)-3-(3-(3-(5,6,7,8-tetrahydro-1,8-naphthyridin-2-yl)propoxy)azetidin-1-yl)propanoic acid], for which the 50% inhibitory concentration (IC50) is 160 nM. In turn, `O=C(O)C[C@H](NC(=O)N1CC(CCc2ccc3c(n2)NCCC3)C1)c1cncnc1` [Example 121] registered an IC50 of 6.2 nM.

Compound `COc1ccc([C@@H](CC(=O)O)C2(F)CN(C(=O)CCCc3ccc4c(n3)NCCC4)C2)cn1` (single isomer, unassigned) [Example 18] yielded a 50% inhibitory concentration (IC50) of 170 nM.

Compound `O=C(O)[C@H](CN1CC(CCCc2ccc3c(n2)NCCC3)C1=O)NS(=O)(=O)c1ccc(F)cc1` (single isomer, unassigned) [Example 188] registered a 50% inhibitory concentration (IC50) of 3.34 nM. In turn, `CC(=O)N(C1CN(CCCc2ccc3c(n2)NCCC3)C1)[C@@H](CC(=O)O)c1cc(Cl)cc(Cl)c1` [Example 21, (S)-3-(3,5-Dichlorophenyl)-3-(N-(1-(3-(5,6,7,8-tetrahydro-1,8-naphthyridin-2-yl)propyl)azetidin-3-yl)acetamido)propanoic acid] returned an IC50 of 9.8 nM. In the case of `O=C(O)C[C@@H](c1cnc2ccccc2c1)N1CC(CCCCc2ccc3c(n2)NCCC3)C1=O` (stereo partly shown) [Example 107] it was 2.7 nM; in that of `COc1ccc([C@H](CC(=O)O)N2CC(CCCCc3ccc4c(n3)NCCC4)C2)cn1` [Example 151], 3.6 nM.
